Test results reported in the supplement of paper PMC10307832.

What was measured:
Test in all cases: relative viability (nuclei count vs DMSO), 5 days (fraction); higher = more cells survive
NCI-H1651 = system: NCI-H1651
Method in brief: (§1)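 Lung cancer cell lines were seeded in 1536-well plates and dosed by pin tool the next day, with either a single drug or a fixed anchor-drug dose combined with five library-drug doses (not always all listed) spaced in √10 steps. Five days later, one step fixed the cells and stained their nuclei (final 0.05% Triton X-100, 1% formaldehyde, 1 ug/ml Hoechst), and nuclei were counted on 4× images. Relative viability is the nuclei count in treated wells divided by the count in vehicle wells, and each value is the median of duplicate plates.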

NCI-H2085 = system: NCI-H2085
Method in brief: as §1

NCI-H2087 = system: NCI-H2087
Method in brief: as §1

NCI-H322M = system: NCI-H322M
Method in brief: as §1

PC-14 = system: PC-14
Method in brief: as §1

PC-3 [JPC-3] = system: PC-3 [JPC-3]
Method in brief: as §1

H3255 = system: H3255
Method in brief: as §1

CAL-12T = system: CAL-12T
Method in brief: as §1

LCLC-97TM1 = system: LCLC-97TM1
Method in brief: as §1

NCI-H1666 = system: NCI-H1666
Method in brief: as §1

NCI-H1395 = system: NCI-H1395
Method in brief: as §1

LK-2 = system: LK-2
Method in brief: as §1

SK-MES-1 = system: SK-MES-1
Method in brief: as §1

NCI-H1355 = system: NCI-H1355
Method in brief: as §1

A-427 = system: A-427
Method in brief: as §1

UMC-11 = system: UMC-11
Method in brief: as §1

NCI-H1792 = system: NCI-H1792
Method in brief: as §1

NCI-H2228 = system: NCI-H2228
Method in brief: as §1

NCI-H838 = system: NCI-H838
Method in brief: as §1

NCI-H1915 = system: NCI-H1915
Method in brief: as §1

**Q.** With O=c1[nH]c2ccccc2n1C1CCN(CCCC(c2ccc(F)cc2)c2ccc(F)cc2)CC1 [Pimozide] + CC1(C)CCC(c2ccc(Cl)cc2)=C(CN2CCN(c3ccc(C(=O)NS(=O)(=O)c4ccc(N[C@H](CCN5CCOCC5)CSc5ccccc5)c(S(=O)(=O)C(F)(F)F)c4)cc3)CC2)C1 [Navitoclax] (partner 0.5 µM) as the molecule, how does the relative viability (NCI-H1651; first compound 0.08 µM) read?
**A.** 0.953

**Q.** What about the relative viability (NCI-H1651; first compound 0.253 µM) of the same molecule?
**A.** 1.06

**Q.** And the relative viability (NCI-H1651; first compound 0.8 µM)?
**A.** 1.07

**Q.** What about the relative viability (NCI-H1651; first compound 2.53 µM) of the same molecule?
**A.** 1.11

**Q.** And the relative viability (NCI-H1651; first compound 8 µM)?
**A.** 0.992

**Q.** What about the relative viability (NCI-H2085; first compound 0.08 µM) of the same molecule?
**A.** 1.15

**Q.** And the relative viability (NCI-H2085; first compound 0.253 µM)?
**A.** 1.15

**Q.** What about the relative viability (NCI-H2085; first compound 0.8 µM) of the same molecule?
**A.** 1.11

**Q.** And the relative viability (NCI-H2085; first compound 2.53 µM)?
**A.** 1.04

**Q.** And the relative viability (NCI-H2085; first compound 8 µM)?
**A.** 1.06

**Q.** And the relative viability (NCI-H2087; first compound 0.08 µM)?
**A.** 0.972

**Q.** What about the relative viability (NCI-H2087; first compound 0.253 µM) of the same molecule?
**A.** 0.98

**Q.** And the relative viability (NCI-H2087; first compound 0.8 µM)?
**A.** 0.878

**Q.** And the relative viability (NCI-H2087; first compound 2.53 µM)?
**A.** 0.997

**Q.** And the relative viability (NCI-H2087; first compound 8 µM)?
**A.** 0.931

**Q.** And the relative viability (NCI-H322M; first compound 0.253 µM)?
**A.** 1.21

**Q.** And the relative viability (NCI-H322M; first compound 0.8 µM)?
**A.** 1.14

**Q.** And the relative viability (NCI-H322M; first compound 2.53 µM)?
**A.** 1.21

**Q.** And the relative viability (NCI-H322M; first compound 8 µM)?
**A.** 1.11

**Q.** What about the relative viability (PC-14; first compound 0.08 µM) of the same molecule?
**A.** 1.04

**Q.** And the relative viability (PC-14; first compound 0.253 µM)?
**A.** 1

**Q.** And the relative viability (PC-14; first compound 0.8 µM)?
**A.** 0.99

**Q.** What about the relative viability (PC-14; first compound 2.53 µM) of the same molecule?
**A.** 1.09

**Q.** And the relative viability (PC-14; first compound 8 µM)?
**A.** 0.967

**Q.** What about the relative viability (PC-3 [JPC-3]; first compound 0.253 µM) of the same molecule?
**A.** 0.73

**Q.** What about the relative viability (PC-3 [JPC-3]; first compound 0.8 µM) of the same molecule?
**A.** 0.798

**Q.** And the relative viability (PC-3 [JPC-3]; first compound 2.53 µM)?
**A.** 0.761

**Q.** And the relative viability (PC-3 [JPC-3]; first compound 8 µM)?
**A.** 0.732

**Q.** What about the relative viability (H3255; first compound 0.253 µM) of the same molecule?
**A.** 0.555

**Q.** What about the relative viability (H3255; first compound 0.8 µM) of the same molecule?
**A.** 0.549

**Q.** And the relative viability (H3255; first compound 2.53 µM)?
**A.** 0.551

**Q.** And the relative viability (H3255; first compound 8 µM)?
**A.** 0.506

**Q.** And the relative viability (CAL-12T; first compound 0.08 µM)?
**A.** 1.35

**Q.** What about the relative viability (CAL-12T; first compound 0.253 µM) of the same molecule?
**A.** 1.23

**Q.** And the relative viability (CAL-12T; first compound 0.8 µM)?
**A.** 1.23

**Q.** What about the relative viability (CAL-12T; first compound 2.53 µM) of the same molecule?
**A.** 0.977

**Q.** And the relative viability (CAL-12T; first compound 8 µM)?
**A.** 1.08

**Q.** What about the relative viability (LCLC-97TM1; first compound 0.08 µM) of the same molecule?
**A.** 0.527

**Q.** What about the relative viability (LCLC-97TM1; first compound 0.253 µM) of the same molecule?
**A.** 0.489

**Q.** And the relative viability (LCLC-97TM1; first compound 0.8 µM)?
**A.** 0.215

**Q.** What about the relative viability (LCLC-97TM1; first compound 2.53 µM) of the same molecule?
**A.** 0.415

**Q.** And the relative viability (LCLC-97TM1; first compound 8 µM)?
**A.** 0.402

**Q.** What about the relative viability (NCI-H1666; first compound 0.08 µM) of the same molecule?
**A.** 0.824

**Q.** What about the relative viability (NCI-H1666; first compound 0.253 µM) of the same molecule?
**A.** 1.01

**Q.** And the relative viability (NCI-H1666; first compound 0.8 µM)?
**A.** 1.04

**Q.** What about the relative viability (NCI-H1666; first compound 2.53 µM) of the same molecule?
**A.** 0.846

**Q.** And the relative viability (NCI-H1666; first compound 8 µM)?
**A.** 0.5

**Q.** What about the relative viability (NCI-H1395; first compound 0.08 µM) of the same molecule?
**A.** 1.08

**Q.** What about the relative viability (NCI-H1395; first compound 0.253 µM) of the same molecule?
**A.** 1.15

**Q.** And the relative viability (NCI-H1395; first compound 0.8 µM)?
**A.** 1.34

**Q.** What about the relative viability (NCI-H1395; first compound 2.53 µM) of the same molecule?
**A.** 1.1

**Q.** And the relative viability (NCI-H1395; first compound 8 µM)?
**A.** 1.3

**Q.** What about the relative viability (LK-2; first compound 0.08 µM) of the same molecule?
**A.** 0.818

**Q.** What about the relative viability (LK-2; first compound 0.253 µM) of the same molecule?
**A.** 0.724

**Q.** And the relative viability (LK-2; first compound 0.8 µM)?
**A.** 0.811

**Q.** And the relative viability (LK-2; first compound 2.53 µM)?
**A.** 0.721

**Q.** And the relative viability (LK-2; first compound 8 µM)?
**A.** 1.05

**Q.** And the relative viability (SK-MES-1; first compound 0.08 µM)?
**A.** 1.31

**Q.** What about the relative viability (SK-MES-1; first compound 0.253 µM) of the same molecule?
**A.** 1.25

**Q.** And the relative viability (SK-MES-1; first compound 0.8 µM)?
**A.** 1.18

**Q.** And the relative viability (SK-MES-1; first compound 2.53 µM)?
**A.** 1.21

**Q.** What about the relative viability (SK-MES-1; first compound 8 µM) of the same molecule?
**A.** 1.08

**Q.** And the relative viability (NCI-H1355; first compound 0.08 µM)?
**A.** 0.849

**Q.** What about the relative viability (NCI-H1355; first compound 0.253 µM) of the same molecule?
**A.** 1.01

**Q.** And the relative viability (NCI-H1355; first compound 0.8 µM)?
**A.** 0.908

**Q.** What about the relative viability (NCI-H1355; first compound 2.53 µM) of the same molecule?
**A.** 0.959

**Q.** What about the relative viability (NCI-H1355; first compound 8 µM) of the same molecule?
**A.** 0.856

**Q.** And the relative viability (A-427; first compound 0.08 µM)?
**A.** 0.965

**Q.** And the relative viability (A-427; first compound 0.253 µM)?
**A.** 1.01

**Q.** What about the relative viability (A-427; first compound 0.8 µM) of the same molecule?
**A.** 0.913

**Q.** And the relative viability (A-427; first compound 2.53 µM)?
**A.** 0.88

**Q.** And the relative viability (A-427; first compound 8 µM)?
**A.** 0.918

**Q.** What about the relative viability (UMC-11; first compound 0.08 µM) of the same molecule?
**A.** 0.33

**Q.** What about the relative viability (UMC-11; first compound 0.253 µM) of the same molecule?
**A.** 0.318

**Q.** And the relative viability (UMC-11; first compound 0.8 µM)?
**A.** 0.293

**Q.** What about the relative viability (UMC-11; first compound 2.53 µM) of the same molecule?
**A.** 0.286

**Q.** What about the relative viability (UMC-11; first compound 8 µM) of the same molecule?
**A.** 0.239

**Q.** And the relative viability (NCI-H1792; first compound 0.08 µM)?
**A.** 0.647

**Q.** What about the relative viability (NCI-H1792; first compound 0.253 µM) of the same molecule?
**A.** 0.629

**Q.** And the relative viability (NCI-H1792; first compound 0.8 µM)?
**A.** 0.619

**Q.** What about the relative viability (NCI-H1792; first compound 2.53 µM) of the same molecule?
**A.** 0.599

**Q.** What about the relative viability (NCI-H1792; first compound 8 µM) of the same molecule?
**A.** 0.649

**Q.** And the relative viability (NCI-H2228; first compound 0.08 µM)?
**A.** 0.758

**Q.** And the relative viability (NCI-H2228; first compound 0.253 µM)?
**A.** 0.715

**Q.** And the relative viability (NCI-H2228; first compound 0.8 µM)?
**A.** 0.845

**Q.** And the relative viability (NCI-H2228; first compound 2.53 µM)?
**A.** 0.616

**Q.** What about the relative viability (NCI-H2228; first compound 8 µM) of the same molecule?
**A.** 0.614

**Q.** What about the relative viability (NCI-H838; first compound 0.08 µM) of the same molecule?
**A.** 1.18

**Q.** What about the relative viability (NCI-H838; first compound 0.253 µM) of the same molecule?
**A.** 1.12

**Q.** And the relative viability (NCI-H838; first compound 0.8 µM)?
**A.** 1.01

**Q.** And the relative viability (NCI-H838; first compound 2.53 µM)?
**A.** 1.11

**Q.** What about the relative viability (NCI-H838; first compound 8 µM) of the same molecule?
**A.** 1.16

**Q.** And the relative viability (NCI-H1915; first compound 0.08 µM)?
**A.** 0.784

**Q.** And the relative viability (NCI-H1915; first compound 0.253 µM)?
**A.** 0.705

**Q.** What about the relative viability (NCI-H1915; first compound 0.8 µM) of the same molecule?
**A.** 0.777

**Q.** And the relative viability (NCI-H1915; first compound 2.53 µM)?
**A.** 0.777

**Q.** And the relative viability (NCI-H1915; first compound 8 µM)?
**A.** 0.786
